Source: ChEMBL document CHEMBL1135329, “DNA binding ligands with excellent antibiotic potency against drug-resistant gram-positive bacteria” (Bioorg Med Chem Lett, 2002)
Values after ≈ are worked out from the molar mass of the structure shown.

test system: Enterococcus faecalis; assay: Antimicrobial activity was determined against vancomycin-resistant Enterococcus faecalis (VREF 51559); assay type: functional; conditions: not given

`Cn1cc(NC(=O)c2cc(NC(=O)c3cc(NC(=O)c4nsc(NCCCCN)c4Cl)cn3C)cn2C)cc1C(=O)NCCCNC1CCCCC1` was tested. Which MIC did it give?
The MIC was 2 µg/mL (≈ 2.65 µM).

How did the MIC turn out when `Cn1cc(NC(=O)c2cc(NC(=O)c3cc(NC(=O)c4nsc(NCCN5CCOCC5)c4Cl)cn3C)cn2C)cc1C(=O)NCC1CC1` was run?
Its MIC is 1 µg/mL (≈ 1.41 µM).

For `CN(C)CCCNC(=O)c1cc(NC(=O)c2cc(NC(=O)c3cc(NC(=O)c4nsc(NCCCN)c4Cl)cn3C)cn2C)cn1C`, which MIC is on record?
Its MIC is 2 µg/mL (≈ 2.91 µM).

`Cn1cc(NC(=O)c2cc(NC(=O)c3cc(NC(=O)c4nsc(NCCc5ccncc5)c4Cl)cn3C)cn2C)cc1C(=O)NCCN1CCOCC1` was tested. Which MIC did it give?
The MIC was 2 µg/mL (≈ 2.62 µM).

`Cn1cc(NC(=O)c2cc(NC(=O)c3cc(NC(=O)c4nsc(NCC5CC5)c4Cl)cn3C)cn2C)cc1C(=O)NCCN1CCOCC1` was tested. Which MIC did it give?
The MIC was 1 µg/mL (≈ 1.41 µM).

test system: Streptococcus pneumoniae; assay: Antimicrobial activity was determined against penicillin-resistant Streptococcus pneumoniae (PRSP 51422); assay type: functional; conditions: not given

How did the MIC turn out when `Cn1cc(NC(=O)c2cc(NC(=O)c3cc(NC(=O)c4nsc(NCCCCN)c4Cl)cn3C)cn2C)cc1C(=O)NCCCNC1CCCCC1` was run?
The MIC was 4 µg/mL (≈ 5.3 µM).

With `Cn1cc(NC(=O)c2cc(NC(=O)c3cc(NC(=O)c4nsc(NCCN5CCOCC5)c4Cl)cn3C)cn2C)cc1C(=O)NCC1CC1` as the molecule, how does the MIC read?
The MIC was 0.5 µg/mL (≈ 0.703 µM).

`CN(C)CCCNC(=O)c1cc(NC(=O)c2cc(NC(=O)c3cc(NC(=O)c4nsc(NCCCN)c4Cl)cn3C)cn2C)cn1C` was tested. Which MIC did it give?
The MIC was 4 µg/mL (≈ 5.83 µM).

How did the MIC turn out when `Cn1cc(NC(=O)c2cc(NC(=O)c3cc(NC(=O)c4nsc(NCCc5ccncc5)c4Cl)cn3C)cn2C)cc1C(=O)NCCN1CCOCC1` was run?
Its MIC is 0.25 µg/mL (≈ 0.328 µM).

`Cn1cc(NC(=O)c2cc(NC(=O)c3cc(NC(=O)c4nsc(NCC5CC5)c4Cl)cn3C)cn2C)cc1C(=O)NCCN1CCOCC1` was tested. Which MIC did it give?
The MIC was 0.125 µg/mL (≈ 0.176 µM).

test system: Streptococcus pneumoniae; assay: Antimicrobial activity was determined against penicillin-susceptible Streptococcus pneumoniae (PSSP 49619); assay type: functional; conditions: not given

For `Cn1cc(NC(=O)c2cc(NC(=O)c3cc(NC(=O)c4nsc(NCCCCN)c4Cl)cn3C)cn2C)cc1C(=O)NCCCNC1CCCCC1`, which MIC is on record?
Its MIC is 1 µg/mL (≈ 1.33 µM).

How did the MIC turn out when `Cn1cc(NC(=O)c2cc(NC(=O)c3cc(NC(=O)c4nsc(NCCN5CCOCC5)c4Cl)cn3C)cn2C)cc1C(=O)NCC1CC1` was run?
Its MIC is 1 µg/mL (≈ 1.41 µM).

How did the MIC turn out when `CN(C)CCCNC(=O)c1cc(NC(=O)c2cc(NC(=O)c3cc(NC(=O)c4nsc(NCCCN)c4Cl)cn3C)cn2C)cn1C` was run?
The MIC was 0.5 µg/mL (≈ 0.729 µM).

How did the MIC turn out when `Cn1cc(NC(=O)c2cc(NC(=O)c3cc(NC(=O)c4nsc(NCCc5ccncc5)c4Cl)cn3C)cn2C)cc1C(=O)NCCN1CCOCC1` was run?
Its MIC is 0.062 µg/mL (≈ 0.0813 µM).

`Cn1cc(NC(=O)c2cc(NC(=O)c3cc(NC(=O)c4nsc(NCC5CC5)c4Cl)cn3C)cn2C)cc1C(=O)NCCN1CCOCC1` was tested. Which MIC did it give?
Its MIC is 0.125 µg/mL (≈ 0.176 µM).

test system: Enterococcus faecalis; assay: Antimicrobial activity was determined against vancomycin-susceptible Enterococcus faecalis (VSEF 29212); assay type: functional; conditions: not given

With `Cn1cc(NC(=O)c2cc(NC(=O)c3cc(NC(=O)c4nsc(NCCCCN)c4Cl)cn3C)cn2C)cc1C(=O)NCCCNC1CCCCC1` as the molecule, how does the MIC read?
Its MIC is 0.5 µg/mL (≈ 0.663 µM).

`Cn1cc(NC(=O)c2cc(NC(=O)c3cc(NC(=O)c4nsc(NCCN5CCOCC5)c4Cl)cn3C)cn2C)cc1C(=O)NCC1CC1` was tested. Which MIC did it give?
The MIC was 0.5 µg/mL (≈ 0.703 µM).

`CN(C)CCCNC(=O)c1cc(NC(=O)c2cc(NC(=O)c3cc(NC(=O)c4nsc(NCCCN)c4Cl)cn3C)cn2C)cn1C` was tested. Which MIC did it give?
The MIC was 1 µg/mL (≈ 1.46 µM).

`Cn1cc(NC(=O)c2cc(NC(=O)c3cc(NC(=O)c4nsc(NCCc5ccncc5)c4Cl)cn3C)cn2C)cc1C(=O)NCCN1CCOCC1` was tested. Which MIC did it give?
Its MIC is 0.25 µg/mL (≈ 0.328 µM).

With `Cn1cc(NC(=O)c2cc(NC(=O)c3cc(NC(=O)c4nsc(NCC5CC5)c4Cl)cn3C)cn2C)cc1C(=O)NCCN1CCOCC1` as the molecule, how does the MIC read?
The MIC was 0.25 µg/mL (≈ 0.351 µM).

test system: Staphylococcus aureus; assay: Antimicrobial activity was determined against methicillin-resistant Staphylococcus aureus (MRSA 27660); assay type: functional; conditions: not given

For `Cn1cc(NC(=O)c2cc(NC(=O)c3cc(NC(=O)c4nsc(NCCCCN)c4Cl)cn3C)cn2C)cc1C(=O)NCCCNC1CCCCC1`, which MIC is on record?
The MIC was 1 µg/mL (≈ 1.33 µM).

`Cn1cc(NC(=O)c2cc(NC(=O)c3cc(NC(=O)c4nsc(NCCN5CCOCC5)c4Cl)cn3C)cn2C)cc1C(=O)NCC1CC1` was tested. Which MIC did it give?
Its MIC is 8 µg/mL (≈ 11.2 µM).

With `CN(C)CCCNC(=O)c1cc(NC(=O)c2cc(NC(=O)c3cc(NC(=O)c4nsc(NCCCN)c4Cl)cn3C)cn2C)cn1C` as the molecule, how does the MIC read?
Its MIC is 1 µg/mL (≈ 1.46 µM).

Which MIC does the source give for `Cn1cc(NC(=O)c2cc(NC(=O)c3cc(NC(=O)c4nsc(NCCc5ccncc5)c4Cl)cn3C)cn2C)cc1C(=O)NCCN1CCOCC1` here?
Its MIC is 1 µg/mL (≈ 1.31 µM).

With `Cn1cc(NC(=O)c2cc(NC(=O)c3cc(NC(=O)c4nsc(NCC5CC5)c4Cl)cn3C)cn2C)cc1C(=O)NCCN1CCOCC1` as the molecule, how does the MIC read?
Its MIC is 1 µg/mL (≈ 1.41 µM).

test system: Candida albicans; assay: Antifungal activity was determined against Candida albicans; assay type: functional; conditions: not given

Which MIC does the source give for `Cn1cc(NC(=O)c2cc(NC(=O)c3cc(NC(=O)c4nsc(NCCCCN)c4Cl)cn3C)cn2C)cc1C(=O)NCCCNC1CCCCC1` here?
Its MIC is 32 µg/mL (≈ 42.4 µM).

Which MIC does the source give for `Cn1cc(NC(=O)c2cc(NC(=O)c3cc(NC(=O)c4nsc(NCCN5CCOCC5)c4Cl)cn3C)cn2C)cc1C(=O)NCC1CC1` here?
Its MIC is > 32 µg/mL.

With `CN(C)CCCNC(=O)c1cc(NC(=O)c2cc(NC(=O)c3cc(NC(=O)c4nsc(NCCCN)c4Cl)cn3C)cn2C)cn1C` as the molecule, how does the MIC read?
Its MIC is 8 µg/mL (≈ 11.7 µM).

Which MIC does the source give for `Cn1cc(NC(=O)c2cc(NC(=O)c3cc(NC(=O)c4nsc(NCCc5ccncc5)c4Cl)cn3C)cn2C)cc1C(=O)NCCN1CCOCC1` here?
The MIC was > 32 µg/mL.

How did the MIC turn out when `Cn1cc(NC(=O)c2cc(NC(=O)c3cc(NC(=O)c4nsc(NCC5CC5)c4Cl)cn3C)cn2C)cc1C(=O)NCCN1CCOCC1` was run?
Its MIC is > 32 µg/mL.

test system: Escherichia coli; assay: Binding to the sequence 5'-ACAATTAA-3', a site proximal to the […] RNA polymerase subunit binding site within the Escherichia coli Trc promoter.; assay type: functional; conditions: read-out: Kd app

How did the Kd turn out when `Cn1cc(NC(=O)c2cc(NC(=O)c3cc(NC(=O)c4nsc(NCCCCN)c4Cl)cn3C)cn2C)cc1C(=O)NCCCNC1CCCCC1` was run?
Its Kd is 0.43 nM.

How did the Kd turn out when `Cn1cc(NC(=O)c2cc(NC(=O)c3cc(NC(=O)c4nsc(NCCN5CCOCC5)c4Cl)cn3C)cn2C)cc1C(=O)NCC1CC1` was run?
The Kd was 208 nM.

How did the Kd turn out when `CN(C)CCCNC(=O)c1cc(NC(=O)c2cc(NC(=O)c3cc(NC(=O)c4nsc(NCCCN)c4Cl)cn3C)cn2C)cn1C` was run?
Its Kd is 1.74 nM.

`Cn1cc(NC(=O)c2cc(NC(=O)c3cc(NC(=O)c4nsc(NCCc5ccncc5)c4Cl)cn3C)cn2C)cc1C(=O)NCCN1CCOCC1` was tested. Which Kd did it give?
Its Kd is 0.29 nM.

How did the Kd turn out when `Cn1cc(NC(=O)c2cc(NC(=O)c3cc(NC(=O)c4nsc(NCC5CC5)c4Cl)cn3C)cn2C)cc1C(=O)NCCN1CCOCC1` was run?
Its Kd is 1.01 nM.

test system: Staphylococcus aureus; assay: Antimicrobial activity was determined against methicillin-susceptible S. aureus(MSSA 29213); assay type: functional; conditions: not given

With `Cn1cc(NC(=O)c2cc(NC(=O)c3cc(NC(=O)c4nsc(NCCCCN)c4Cl)cn3C)cn2C)cc1C(=O)NCCCNC1CCCCC1` as the molecule, how does the MIC read?
Its MIC is 0.5 µg/mL (≈ 0.663 µM).

Which MIC does the source give for `Cn1cc(NC(=O)c2cc(NC(=O)c3cc(NC(=O)c4nsc(NCCN5CCOCC5)c4Cl)cn3C)cn2C)cc1C(=O)NCC1CC1` here?
The MIC was 16 µg/mL (≈ 22.5 µM).

For `CN(C)CCCNC(=O)c1cc(NC(=O)c2cc(NC(=O)c3cc(NC(=O)c4nsc(NCCCN)c4Cl)cn3C)cn2C)cn1C`, which MIC is on record?
The MIC was 2 µg/mL (≈ 2.91 µM).

For `Cn1cc(NC(=O)c2cc(NC(=O)c3cc(NC(=O)c4nsc(NCCc5ccncc5)c4Cl)cn3C)cn2C)cc1C(=O)NCCN1CCOCC1`, which MIC is on record?
The MIC was 1 µg/mL (≈ 1.31 µM).

Which MIC does the source give for `Cn1cc(NC(=O)c2cc(NC(=O)c3cc(NC(=O)c4nsc(NCC5CC5)c4Cl)cn3C)cn2C)cc1C(=O)NCCN1CCOCC1` here?
The MIC was 0.5 µg/mL (≈ 0.703 µM).
